Measured values as given in PubChem BioAssay AID1996.
Converted amounts (≈) assume the structure as drawn.

Settings: buffer; pH 7.4; 200.0 µM

Compound | solubility kinetic [µg/mL]
Cc1ccc2cc(NC(=O)CC(CC(=O)O)c3ccccc3)ccc2n1 (stereo not given) | 47 (≈ 135 µM)
O=C(NC1CCCCCC1)c1ccc[nH]c1=S | > 37.6
CCCCn1c(N)c(N(CCC(C)C)C(=O)COC(=O)c2ccc([N+](=O)[O-])s2)c(=O)[nH]c1=O | 25.1 (≈ 52.1 µM)
CCOC(CNc1ncnc2c1cnn2C)OCC | > 39.8
CCc1ccc(NC(=O)c2cnccn2)cc1 | 21.4 (≈ 94.2 µM)
Cc1cc(NC(=O)CSc2cc(C)c3ccccc3n2)no1 | 2.2 (≈ 7.02 µM)
O=C(CCc1nc(-c2ccc(Cl)cc2)no1)NCC1CCCO1 (stereo not given) | > 50.4
CC(=Nc1ccccc1O)c1sc2ccccc2c1O | < 0.6
CC1CCc2c(sc(NC(=O)c3ccco3)c2C(=O)O)C1 (stereo not given) | > 45.8
Cc1ccc(Cn2c(=O)n(C)c(=O)c3sccc32)cc1 | 1.2 (≈ 4.19 µM)
CN(C)C(=O)CN1CCN(Cc2nc(CC3CC3)no2)CC1 | > 46.1
CC1(C(=O)NCc2ccc(F)cc2)Oc2ccccc2NC1=O (stereo not given) | > 47.1
Cc1ccc(O)c(NC(=O)C2CC(c3cccc(Br)c3)=NO2)c1 (stereo not given) | < 0.4
COc1ccc(NC(=O)c2ccc([N+](=O)[O-])o2)cc1 | 23.4 (≈ 89.2 µM)
O=C1NC(=O)/C(=C/c2ccccc2Cl)N1 | 17.8 (≈ 80 µM)
CC(C)COc1nc2ccccc2nc1N1CCN(C)CC1 | 33.9 (≈ 113 µM)
CCS(=O)(=O)N1CCN=C1SC(C)c1ccccc1 (stereo not given) | 41.4 (≈ 139 µM)
O=C(c1ccc2ccccc2n1)N(CCO)Cc1ccccc1 | 41.4 (≈ 135 µM)
COc1ccccc1C1CCN(C(=O)c2ccc(C(C)(C)C)cc2)CC1 | 3.1 (≈ 8.82 µM)
CC(=O)OCc1c(C)cc(C)c(/C=C(/C#N)C(N)=O)c1C | > 42.9
CCC(OC(=O)CN1C(=O)c2ccccc2C1=O)C(=O)NC1CCCC1 (stereo not given) | 52.1 (≈ 145 µM)
Cc1ccc(F)c(NC(=O)CCOc2ccccc2C)c1 | 25.5 (≈ 88.7 µM)

Compound | solubility kinetic [µg/mL]
OCCN1CCN(Cc2ccc3ccccc3c2)CC1 | 26.9 (≈ 99.5 µM)
Nc1nonc1C(=O)NCCNC(=O)c1cccc(Cl)c1 | 45.8 (≈ 148 µM)
Cc1cccc(N2C(=O)NC(=O)/C(=C\C=C\c3ccco3)C2=O)c1 | 39.2 (≈ 122 µM)
CC(NC(=O)c1ccc(F)cc1Cl)C1CC2CCC1C2 (stereo not given) | 16.6 (≈ 56.1 µM)
CC(=O)c1c(C)[nH]c(C(=O)Nc2cccc(C(F)(F)F)c2)c1C | 2 (≈ 6.17 µM)
Cc1ccccc1C(=O)NC(=S)N(C)CCc1ccccn1 | > 47
COc1cc2c(cc1OC)CN(Cc1ccccc1)CC2 | 35.6 (≈ 126 µM)
O=C(c1ccc(NC(=S)NCc2ccco2)cc1)N1CCOCC1 | 41.6 (≈ 120 µM)
CCN(CC)C(=O)C12CC3CC(CC(Br)(C3)C1)C2 | 32.7 (≈ 104 µM)
O=C(Nc1ccccc1)c1c(O)c2c(n(Cc3ccco3)c1=O)CCCC2 | < 0.4
Cc1cccc(NCc2ccccc2)c1 | 0.8 (≈ 4.06 µM)
Cc1ccc(S(=O)(=O)CCC(=O)OCc2nnc(-c3ccccc3)o2)cc1 | > 58
O=C(COC(=O)C1CC1)Nc1ccc2c(c1)OCO2 | > 39.5
N#Cc1cc(Sc2ccccn2)c([N+](=O)[O-])cc1C#N | > 42.3
Cc1ccc(C(=O)CSc2nc(O)cc(=O)[nH]2)cc1C | > 43.6
CCN(Cc1ccccc1)Cc1ccc(OCc2ccccc2)c(OC)c1 | 10.3 (≈ 28.5 µM)
Cc1ccc(S(=O)(=O)NC(=O)NC(C)c2ccc(F)cc2)cc1 (stereo not given) | > 50.5
CCCCN(C(=O)CSc1nc(CCC)cc(=O)[nH]1)c1c(N)n(Cc2ccccc2)c(=O)[nH]c1=O | > 74.8
CC(NC(=O)CN1CCOCC1)c1ccccc1 (stereo not given) | > 37.2
Oc1ccccc1C=Nc1cccc2ccccc12 | 9.4 (≈ 38 µM)
CCCN1C(=O)N(c2cccc(C)c2)C(C)(O)CC1(C)C (stereo not given) | > 43.6
NS(=O)(=O)c1ccc(S(=O)(=O)c2ccccc2)nc1 | > 44.7

Compound | solubility kinetic [µg/mL]
C/C(=N\NC(N)=O)c1c(O)n(C)c(=O)n(C)c1=O | > 38.3
Cc1cc([N+](=O)[O-])ccc1NC(=O)CCC(=O)N1CCCCCC1 | > 50
COc1ccc(S(=O)(=O)NCCc2ccccn2)cc1 | > 43.9
C=CCNc1nc(Cl)nc(Nc2cc(Cl)ccc2OC)n1 | < 0.1
C=CCOC(=O)c1ccc(N2CCN(c3ccccc3)CC2)nc1 | 0.9 (≈ 2.78 µM)
Cc1cccc(C)c1NC(=S)N(CCN(C)C)Cc1cccs1 | 45.8 (≈ 132 µM)
CCSc1nc2sc3c(c2c(=O)n1-c1ccccc1)CCN(C(C)C)C3 | 37 (≈ 96 µM)
CC(=O)c1ccc(N2CCN(C(=O)Nc3cccc(F)c3)CC2)cc1 | 4.8 (≈ 14.1 µM)
O=C(Nc1ccccc1Cl)C1CC(=O)N(c2ccccc2)C1 (stereo not given) | 33.4 (≈ 106 µM)
Cc1cc(C)n(-c2ccnc3cc(Cl)ccc23)n1 | > 38.7
CN(C)C(=O)c1cc(C(=O)c2ccccc2F)c[nH]1 | 38.9 (≈ 149 µM)
CCC(C)NC(=O)CN1C(=O)NC2NC(=O)NC21 (stereo not given) | > 38.3
COc1cc(C(=O)COC(=O)c2ccc([N+](=O)[O-])o2)cc(OC)c1OC | > 54.8
COc1cc(C(=S)N2CCOCC2)ccc1OC(=O)c1ccccc1C | 10.3 (≈ 27.7 µM)
COCc1cc(C)[nH]c(=O)c1C(=O)NC12CC3CC(CC(C3)C1)C2 | 9.6 (≈ 29.1 µM)
O=C(O)c1ccc(S(=O)(=O)N2CCOCC2)o1 | 33.9 (≈ 130 µM)
Cc1ccc(N(CC(=O)NC(C)(C)C)C(=O)CCC(=O)Nc2nccs2)cc1C | 12.2 (≈ 29.3 µM)
O=C(O)C1CCN(C(=O)CCc2ccccc2)CC1 | > 39.2
Cn1c(=O)n(C)c2cc(NC(=O)c3ccc(F)cc3)c(Br)cc21 | 8.2 (≈ 21.7 µM)
Cc1noc(NS(=O)(=O)c2ccc(N)cc2)c1C | > 40.1
Cc1ccc2[nH]c3c(c2c1)CCN1C(=O)OC(C)(C)C31C (stereo not given) | 10.4 (≈ 36.6 µM)
CCN1CCN(C(=O)/C=C/c2ccc3c(c2)OCO3)CC1 | > 43.3

Compound | solubility kinetic [µg/mL]
Cc1ccccc1OCC(=O)OCC(=O)c1ccc[nH]1 | > 41
O=C(COC(=O)CCC1CCCC1)Nc1ccccc1OC(F)F | 9.7 (≈ 28.4 µM)
Cl.OC(c1ccc(Cl)cc1)C(CN1CCOCC1)c1ccccc1 (stereo not given) | > 55.2
CC(=O)Nc1cccc(C(=O)OCC(=O)c2ccccc2Cl)c1 | 43 (≈ 130 µM)
Cc1cc(OCC(=O)N2CCOCC2)ccc1[N+](=O)[O-] | > 42
O=C(Cc1ccc(Cl)c(Cl)c1)Nc1cccc2ncccc12 | 2.1 (≈ 6.34 µM)
Cc1ccc(NC(=O)c2oc3ccccc3c2C)nc1 | 6.4 (≈ 24 µM)
Cc1cc(NC(=O)CSc2nnc(-c3ccco3)n2C)no1 | > 47.9
CC1(C)CC(NC(=S)NCc2ccco2)CC(C)(C)N1 | > 44.3
COc1ccc(CCC(C)NC2CCCCCCC2)cc1 (stereo not given) | 41.8 (≈ 144 µM)
COc1cc([N+](=O)[O-])ccc1NC(=S)N1CCN(c2ccccn2)CC1 | 12.2 (≈ 32.7 µM)
COc1ccc(C(=O)N2CCN(c3ccccn3)CC2)cc1[N+](=O)[O-] | 49.5 (≈ 145 µM)
CCCC(=O)Nc1nnc(SCC(=O)N2CCCCC2)s1 | > 49.3
O=c1c2ccccc2nc(/C=C/c2ccccc2)n1-c1ccc(O)cc1 | 1.6 (≈ 4.7 µM)
CCOc1ccccc1NC(=O)CN1C(=O)COc2ccc(C)cc21 | 2.4 (≈ 7.05 µM)
CNC(=O)Cn1c(C)cc(=O)c2cccc(OC)c21 | > 39
CCOc1ccc(/C=C(\C#N)C(=O)NC2CC2)c(OCC)c1 | 4.8 (≈ 16 µM)
CCc1cc2c(N[C@@H](Cc3ccccc3)C(=O)O)ncnc2s1 | > 49.1
CCOc1ccc(C(C)=O)cc1COC(=O)CNC(=O)C12CC3CC(CC(C3)C1)C2 | 36.7 (≈ 88.8 µM)
